{
  "source": "patent US20210315970A1",
  "about": "“Hepatitis A Virus Replication Inhibitor Targeting mTOR” (Tokyo Metropolitan Institute of Medical Science, priority 2020, published 2021)",
  "molecules": {"B1": {"name": "RARRES3: retinoic acid receptor responder protein 3, SEQ ID NO:2, phospholipase A / acyltransferase activity (protein, listed as Homo sapiens)", "chain": "MASPHQEPKPGDLIEIFRLGYEHWALYIGDGYVIHLAPPSEYPGAGSSSVFSVLSNSAEVKRERLEDVVGGCCYRVNNSLDHEYQPRPVEVIISSAKEMVGQKMKYSIVSRNCEHFVTQLRYGKSRCKQVEKAKVEVGVATALGILVVAGCSFAIRRYQKKATA"}, "B2": {"name": "IFN-γ: Recombinant human IFN-γ obtained from PeproTech (protein, UniProt P01579 24-161, looked up)", "Interferon gamma": "QDPYVKEAENLKKYFNAGHSDVADNGTLFLGILKNWKEESDRKIMQSQIVSFYFKLFKNFKDDQSIQKSVETIKEDMNVKFFNSNKKKRDDFEKLTNYSVTDLNVQRKAIHELIQVMAELSPAAKTGKRKRSQMLFRG"}},
  "key": {"[1]": {"test_system": "HAV expressing NanoLuc reporter (18f strain, HAV/NLuc)", "assay": "HAV/NLuc reporter virus replication in HuH-7 cells (NanoLuc activity)", "type": "cell-based, hepatitis A virus", "settings": "for virus replication compared to rapalogs that target mTOR alone: HAV, dual mTOR/PI3K inhibitors; for virus replication level reduced to (NanoLuc activity): highest dose (10 μM); for viral replication level reduced to (NanoLuc activity): HuH-7 cells infected with HAV/NLuc, drug given 1 hour after infection, 48 hours post-infection", "experimental": "(§1) HuH-7 cells were infected with HAV/NLuc and drugs were given 1 hour after infection. 48 hours later, NanoLuc activities were measured to evaluate the virus replication levels. In addition, WST-8 reagent (Cell Counting Kit-8, Dojindo) was used to evaluate cell viability after the drug treatment.\npHM175/18f-NLuc plasmid was prepared by PCR amplification of the NLuc open reading frame using pNL1.1 plasmid (Promega) as a template and primers containing a triglycine sequence flanked by XbaI and BamHI restriction enzyme sites. This PCR product was digested with these enzymes and ligated into similarly digested pSK-2A-Zeo-2B plasmid^36 to give pSK-2A-NLuc-2B plasmid. This plasmid was further digested with SacI/PflMI to cleave out the entire 2A-NLuc-2B fragment, which was ligated into similarly digested HM175/18f parental plasmid^37 to give pHM175/18f-NLuc reporter virus.\n(§2) GLuc analysis of HCV replication and dual luciferase assay for analyzing the transcriptional induction were carried out according to the previously described methods^31,32. NanoLuc activity was determined with Nano-Glo Luciferase Assay System (Promega) according to the manufacture's protocol. For virus replication assays, the medium was replaced with a drug-containing medium at 1 hour post inoculation."}, "HAV [2]": {"test_system": "HAV", "assay": "HAV-infected mouse model, viral RNA shed in feces (real-time PCR)", "type": "in vivo", "settings": "Ifnar1-/- C57BL/6 mice, 15 mg/kg orally from Day 5 after infection, daily for 14 days except Day 9 and Day 16", "experimental": "Type-I interferon receptor (Ifnar1)-knockout C57BL/6 mice were infected by tail vein injection of the virus equivalent to 1.7×10^9 genome copy number. Pictilisib (15 mg/kg) was administered 5 days after infection and viral RNA contained in the later shed feces was quantified by real-time PCR to analyze the antiviral action of the drug (Reference 3).\nThe drug was orally administered from Day 5 following the infection and continuously administered daily for 14-consecutive days except Day 9 and Day 16. The viral RNA levels shed in the feces reflect the viral load in the liver and thus the viral RNA levels in the feces were quantified. As a result, the viral RNA level was reduced to about one-tenth by administration of the drug, confirming its antiviral effect (FIG. 6).\nVirus: HAV-HM175 strain, 1.7×10^9 GE, iv route\nVehicle: 0.5% methyl cellulose/0.2% Tween 80\nMice: Ifnar1^−/− C57BL/6, 5 animals/group\nThe drug was orally administered from Day 5 following the infection for 14 consecutive days except Day 9 and Day 16. Viral level in the feces was quantified with time because it can serve as an indicator that reflects the viral level in the liver."}, "[3]": {"settings": "phase II trial; cited from earlier work"}, "subgenomic HAV RNA": {"test_system": "subgenomic HAV RNA", "assay": "Subgenomic HAV RNA replicon replication in transfected Huh-7.5 cells", "type": "cell-based, hepatitis A virus", "experimental": "FIG. 4i Inhibition of subgenomic HAV/NLuc RNA replication in the transfected Huh-7.5 cells by three different mTOR inhibitors and DAA (30 μM 2′CMA). **P<0.01 vs. DMSO control group (one-way analysis of variance with Dunnett's multiple comparison test).\nIn vitro transcription of HAV or HCV RNA was performed with T7 RiboMAX Express Large Scale RNA production system (Promega) according to the manufacturer's protocol. Transfection of viral RNA was carried out in Gene Pulser Xcell Total System (Bio-Rad Laboratories) as previously described^33, or with TransIT-mRNAtransfection kit (Mirus) for HAV-Luc RNA as previously described^32.\nas §2"}, "HuH-7 cells": {"test_system": "HuH-7 cells", "assay": "Cell viability after drug treatment (WST-8, Cell Counting Kit-8)", "type": "cell-based, human", "settings": "at concentrations that suppress virus replication", "experimental": "as §1\nMicroRNA-122 mimics were synthesized by Dharmacon and transfected as miRNA/miRNA* duplex by electroporation as previously described^33. Puromycin, Blasticidin and Ruxolitinib were purchased from InvivoGen. Pyridone 6 was obtained from EMD Millipore. Recombinant human IFN-λ1 and IFN-α and actinomycin D were purchased from Sigma-Aldrich. Recombinant human IFN-γ was obtained from PeproTech. PSI-7977 (sofosbuvir) was obtained from ChemScene and 2′-C-methyl adenosine (2′ CMA) was obtained from Santa Cruz Biotechnology. Cell viabilities were determined using Cell Counting Kit-8 (Dojindo) on 96-well plates according to the manufacturer's protocol."}, "HAV [4]": {"test_system": "HAV", "assay": "HAV replication in cells overexpressing RARRES3 or C113S mutant (lentiviral vectors)", "type": "cell-based, hepatitis A virus", "settings": "cells overexpressing the protein"}, "HCV": {"test_system": "HCV", "assay": "HCV replication in Huh-7.5 cells", "type": "cell-based, hepatitis C virus", "settings": "RARRES3 overexpression", "experimental": "(§3) High-titer HAV (HM175/18f strain) was mycoplasma-free and was prepared as previously described^34. HAV infection was performed at a multiplicity of infection (MOI) of 10. SeV (Cantell strain) was obtained from Charles River Laboratories, and was inoculated at 50 U ml^−1 unless otherwise indicated. Infection with HCV-carrying Gaussia luciferase (GLuc) reporter was performed as previously described^32. DENV serotype 2 (olSa-054 strain) and ZIKV (MR-766 and AB-59 strains) were propagated in Vero, C6/36 or Huh-7.5 cells and inoculated at MOI=1 as previously described^35.\nas §2"}, "DENV": {"test_system": "DENV", "assay": "DENV replication in Huh-7.5 cells", "type": "cell-based, dengue virus", "settings": "RARRES3 overexpression", "experimental": "as §3\nPlasmids encoding capsid and subgenomic RNA containing NS1-5 regions fused with a NanoLuc reporter flanked by 5′ and 3′ untranslated RNAs derived from DENV1 (D1/Hu/Saitama/NIID100/2014 strain) and DENV2-derived premembrane and envelope protein (olSa-054 strain) were transfected into HEK293T cells. Infectious virons secreted in the supernatant were harvested according to the previously described method^38.\nPrimer pair targeting DENV genomic RNA, 5′-[…]-3′ (SEQ ID NO:57) and 5′-CATCATTAAGTCGAGGGCC-3′ (SEQ ID NO:58), or primer pair targeting ZIKV genomic RNA, 5′-[…]-3′ (SEQ ID NO:59) and 5′[…]-3′ (SEQ ID NO:60) was used with RNA-direct SYBR Green Realtime PCR Master Mix (TOYOBO) to quantify DENV and ZIKV RNA abundance."}, "[5]": {"test_system": "human rhinovirus 14 (HRV-14)", "assay": "HRV-14 replication with RARRES3 overexpression", "type": "cell-based"}, "HAV [6]": {"test_system": "HAV", "assay": "HAV replication in Huh-7.5 cells", "type": "cell-based, hepatitis A virus", "settings": "IRF1-dependent", "experimental": "as §3\nTotal RNA extraction was performed using RNeasy Mini Kit (QIAGEN), QIAamp viral RNA Mini Kit (QIAGEN) or TRIzol (Thermo Fisher). HAV genomic RNA was detected by a two-step RT-qPCR analysis using SuperScript III First-Strand Synthesis System (Thermo Fisher Scientific) and iTaq Universal SYBR Green Supermix (Bio-Rad Laboratories), or Thunderbird SYBR qPCR Mix (TOYOBO). 5′-GGTAGGCTACGGGTGAAAC-3′ (SEQ ID NO:3) and 5′-[…]-3′ (SEQ ID NO:4) were used as HAV-specific primers"}},
  "data": [
    {"molecule": "CS(=O)(=O)N1CCN(Cc2cc3nc(-c4cccc5[nH]ncc45)nc(N4CCOCC4)c3s2)CC1", "note": "[Pictilisib]", "values": [
      {"measurement": "virus replication compared to rapalogs that target mTOR alone", "setting": "[1]", "value": "one-tenth"},
      {"measurement": "virus replication level reduced to (NanoLuc activity)", "setting": "[1]; HAV/NLuc-infected cells", "value": "about one-thousandth"},
      {"measurement": "viral RNA level in the feces reduced to", "setting": "HAV [2]", "value": "about one-tenth"},
      {"measurement": "safety to human", "setting": "[3]", "value": "confirmed to be safe to human"}
    ]},
    {"molecule": "C[C@@]1(O)[C@H](O)[C@@H](CO)O[C@H]1n1cnc2c(N)ncnc21", "note": "[2′CMA, 2′-C-methyl adenosine]", "values": [
      {"measurement": "subgenomic HAV/NLuc RNA replication", "setting": "subgenomic HAV RNA; transfected Huh-7.5 cells, 2′CMA 30 μM", "value": "Inhibition"}
    ]},
    {"molecule": "CO[C@H]1C[C@@H]2CC[C@@H](C)[C@@](O)(O2)C(=O)C(=O)N2CCCC[C@H]2C(=O)O[C@H]([C@H](C)C[C@@H]2CC[C@@H](O)[C@H](OC)C2)CC(=O)[C@H](C)/C=C(\\C)[C@@H](O)[C@@H](OC)C(=O)[C@H](C)C[C@H](C)/C=C/C=C/C=C/1C", "note": "[rapamycin]", "values": [
      {"measurement": "cell viability", "setting": "HuH-7 cells", "value": "without having an influence on the cell viability"}
    ]},
    {"molecule": "CCC(=O)N1CCN(c2ccc(-n3c(=O)ccc4cnc5ccc(-c6cnc7ccccc7c6)cc5c43)cc2C(F)(F)F)CC1", "note": "[Torin-1, 1-[4-[4-(1-oxopropyl)-1-piperazinyl]-3-(trifluoromethyl)phenyl]-9-(3-quinolinyl)-benzo[h]-1,6-naphthyridin-2(1H)-one]", "values": [
      {"measurement": "cell viability", "setting": "HuH-7 cells", "value": "without having an influence on the cell viability"},
      {"measurement": "HAV replication (effect in words)", "setting": "[1]; HAV/NLuc-infected cells", "value": "suppressed strongly"},
      {"measurement": "viral replication level reduced to (NanoLuc activity)", "setting": "[1]", "value": "one-hundredth"}
    ]},
    {"molecule": "CO[C@H]1C[C@@H]2CC[C@@H](C)[C@@](O)(O2)C(=O)C(=O)N2CCCC[C@H]2C(=O)O[C@H]([C@H](C)C[C@@H]2CC[C@@H](OCCO)[C@H](OC)C2)CC(=O)[C@H](C)/C=C(\\C)[C@@H](O)[C@@H](OC)C(=O)[C@H](C)C[C@H](C)/C=C/C=C/C=C/1C", "note": "[everolimus]", "values": [
      {"measurement": "cell viability", "setting": "HuH-7 cells", "value": "without having an influence on the cell viability"},
      {"measurement": "viral replication level reduced to (NanoLuc activity)", "setting": "[1]", "value": "one-twentieth"}
    ]},
    {"molecule": "Oc1cccc(-c2nc(N3CCOCC3)c3oc4ncccc4c3n2)c1", "note": "[PI-103]", "values": [
      {"measurement": "virus replication compared to rapalogs that target mTOR alone", "setting": "[1]", "value": "one-tenth"},
      {"measurement": "virus replication level reduced to (NanoLuc activity)", "setting": "[1]; HAV/NLuc-infected cells", "value": "about one-thousandth"}
    ]},
    {"molecule": "CO[C@H]1C[C@@H]2CC[C@@H](C)[C@@](O)(O2)C(=O)C(=O)N2CCCC[C@H]2C(=O)O[C@H]([C@H](C)C[C@@H]2CC[C@@H](OC(=O)C(C)(CO)CO)[C@H](OC)C2)CC(=O)[C@H](C)/C=C(\\C)[C@@H](O)[C@@H](OC)C(=O)[C@H](C)C[C@H](C)/C=C/C=C/C=C/1C", "note": "[temsirolimus]", "values": [
      {"measurement": "cell viability", "setting": "HuH-7 cells", "value": "without having an influence on the cell viability"},
      {"measurement": "viral replication level reduced to (NanoLuc activity)", "setting": "[1]", "value": "one-twentieth"}
    ]},
    {"molecule": "B1", "values": [
      {"measurement": "HAV replication", "setting": "HAV [4]", "value": "strongly suppressed"},
      {"measurement": "replication of subgenomic RNA replicon", "setting": "subgenomic HAV RNA; Huh-7.5 cells expressing RARRES3", "value": "suppressed"},
      {"measurement": "HCV replication", "setting": "HCV", "value": "did not restrict"},
      {"measurement": "DENV replication", "setting": "DENV", "value": "did not restrict"},
      {"measurement": "HRV-14 replication", "setting": "[5]", "value": "did not restrict"}
    ]},
    {"molecule": "B2", "values": [
      {"measurement": "HAV replication", "setting": "HAV [6]", "value": "restricted HAV replication"}
    ]}
  ]
}
